Target: human factor XIa (Homo sapiens (Human), UniProt P03951)
Experiment: Measurement of FXIa inhibition (fluorogenic peptide substrate)
Format: biochemical
Conditions: factor XIa from Kordia 0.45 nM; substrate Boc-Glu(OBzl)-Ala-Arg-AMC; 30 min at 22° C.
Procedure: a.1) Measurement of FXIa Inhibition
The factor XIa inhibition of the inventive substances is determined using a biochemical test system which utilizes the reaction of a peptidic factor XIa substrate to determine the enzymatic activity of human factor XIa. Here, factor XIa cleaves from the peptic factor XIa substrate the C-terminal aminomethylcoumarin (AMC), the fluorescence of which is measured. The determinations are carried out in microtitre plates.
In each case 1 μl of the diluted substance solutions is placed into the wells of white microtitre plates from Greiner (384 wells). […] After 15 min of incubation, the enzyme reaction is started by addition of 20 μl of the factor XIa substrate Boc-Glu(OBzl)-Ala-Arg-AMC dissolved in assay buffer (10 μM in assay buffer) from Bachem, the mixture is incubated at room temperature (22° C.) for 30 min and fluorescence is then measured (excitation: 360 nm, emission: 460 nm). The measured emissions of the test batches with test substance are compared to those of control batches without test substance (only dimethyl sulphoxide instead of test substance in dimethyl sulphoxide), and IC50 values are calculated from the concentration/activity relationships.

Sequence of human factor XIa (P03951 388-625): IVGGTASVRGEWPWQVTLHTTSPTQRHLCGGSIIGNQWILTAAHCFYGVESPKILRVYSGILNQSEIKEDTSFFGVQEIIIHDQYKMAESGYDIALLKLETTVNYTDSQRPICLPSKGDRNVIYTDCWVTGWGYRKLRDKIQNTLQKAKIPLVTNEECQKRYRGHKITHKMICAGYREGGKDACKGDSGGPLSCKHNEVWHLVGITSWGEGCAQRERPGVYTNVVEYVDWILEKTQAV
Sequence of human factor XIa (P03951 19-387 partner): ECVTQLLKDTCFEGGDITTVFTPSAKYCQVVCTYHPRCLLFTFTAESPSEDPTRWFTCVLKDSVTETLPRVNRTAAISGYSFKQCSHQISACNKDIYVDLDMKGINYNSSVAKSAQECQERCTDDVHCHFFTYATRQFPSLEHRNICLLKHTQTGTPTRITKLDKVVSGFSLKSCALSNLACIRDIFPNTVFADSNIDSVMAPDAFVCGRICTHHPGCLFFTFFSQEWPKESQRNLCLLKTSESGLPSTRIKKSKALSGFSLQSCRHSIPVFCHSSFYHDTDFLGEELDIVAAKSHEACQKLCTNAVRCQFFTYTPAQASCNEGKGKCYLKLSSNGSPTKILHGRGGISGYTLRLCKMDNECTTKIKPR

Row | Structure (SMILES) | IC50 [nM]
1 | O=C(Cn1c2c(c(-c3cc(Cl)ccc3C(F)(F)F)cc1=O)C(=O)CC2)Nc1ccc(-c2cc(=O)[nH][nH]2)cc1 [Example 11, 2-{4-[5-Chloro-2-(trifluoromethyl)phenyl]-2,5-dioxo-2,5,6,7-tetrahydro-1H-cyclopenta[b]pyridin-1-yl}-N -[4-(5-oxo-2,5-dihydro-1H-pyrazol-3-yl)phenyl]acetamide] | 750
2 | N#Cc1ccc(Cl)cc1-c1cc(=O)n(CC(=O)Nc2ccc(-c3noc(=O)[nH]3)cc2)c2c1C(=O)CC2 [Example 13, 2-[4-(5-Chloro-2-cyanophenyl)-2,5-dioxo-2,5,6,7-tetrahydro-1H-cyclopenta[b]pyridin-1-yl]-N-[4-(5-oxo-4,5-dihydro-1,2,4-oxadiazol-3-yl)phenyl]acetamide] | 34
3 | O=C(Cn1c2c(c(-c3cc(Cl)ccc3Cl)cc1=O)C(=O)CC2)Nc1ccc(-c2cnc[nH]2)cc1 [Example 8, 2-[4-(2,5-Dichlorophenyl)-2,5-dioxo-2,5,6,7-tetrahydro-1H-cyclopenta[b]pyridin-1-yl]-N-[4-(1H-imidazol-5-yl)phenyl]acetamide] | 470
4 | N#Cc1ccc(Cl)cc1-c1cc(=O)n(CC(=O)Nc2ccc(-c3noc(=O)[nH]3)cc2)c2c1C(=O)CCC2 [Example 16, 2-[4-(5-Chloro-2-cyanophenyl)-2,5-dioxo-5,6,7,8-tetrahydroquinolin-1(2H)-yl]-N-[4-(5-oxo-4,5-dihydro-1,2,4-oxadiazol-3-yl)phenyl]acetamide] | 77
5 | O=C(Cn1c2c(c(-c3cc(Cl)ccc3Br)cc1=O)C(=O)CC2)Nc1ccc(-c2noc(=O)[nH]2)cc1 [Example 10, 2-[4-(2-Bromo-5-chlorophenyl)-2,5-dioxo-2,5,6,7-tetrahydro-1H-cyclopenta[b]pyridin-1-yl]-N-[4-(5-oxo-4,5-dihydro-1,2,4-oxadiazol-3-yl)phenyl]acetamide] | 190
6 | O=C(Cn1c2c(c(-c3cc(Cl)ccc3Cl)cc1=O)C(=O)CC2)Nc1ccc(-c2nc(C(F)(F)F)n[nH]2)cc1 [Example 6, 2-[4-(2,5-Dichlorophenyl)-2,5-dioxo-2,5,6,7-tetrahydro-1H-cyclopenta[b]pyridin-1-yl]-N-{4-[3-(trifluoromethyl)-1H-1,2,4-triazol-5-yl]phenyl}acetamide] | 550

The remaining compounds from weak to strong by IC50, led by results:

Row | IC50 [nM] | Structure (SMILES)
7 | 420 | O=C(Cn1c2c(c(-c3cc(Cl)ccc3Cl)cc1=O)C(=O)CC2)Nc1ccc(C(=O)O)cc1 [Example 4, 4-({[4-(2,5-Dichlorophenyl)-2,5-dioxo-2,5,6,7-tetrahydro-1H-cyclopenta[b]pyridin-1-yl]acetyl}amino)benzoic acid]
8 | 340 | CN1Cc2c(c(-c3cc(Cl)ccc3Cl)cc(=O)n2CC(=O)Nc2ccc(-c3nnn[nH]3)cc2)C1=O [Example 2, 2-[4-(2,5-Dichlorophenyl)-6-methyl-2,5-dioxo-2,5,6,7-tetrahydro-1H-pyrrolo[3,4-b]pyridin-1-yl]-N-[4-(1H-tetrazol-5-yl)phenyl]acetamide]
9 | 230 | O=C(Cn1c2c(c(-c3cc(Cl)ccc3Cl)cc1=O)C(=O)CC2)Nc1ccc(-c2nnn[nH]2)cc1 [Example 3, 2-[4-(2,5-Dichlorophenyl)-2,5-dioxo-2,5,6,7-tetrahydro-1H-cyclopenta[b]pyridin-1-yl]-N-[4-(1H-tetrazol-5-yl)phenyl]acetamide]
10 | 170 | O=C(Cn1c2c(c(-c3cc(Cl)ccc3Br)cc1=O)C(=O)CC2)Nc1ccc(-c2nnn[nH]2)cc1 [Example 9, 2-[4-(2-Bromo-5-chlorophenyl)-2,5-dioxo-2,5,6,7-tetrahydro-1H-cyclopenta[b]pyridin-1-yl]-N-[4-(1H-tetrazol-5-yl)phenyl]acetamide]
11 | 140 | N#Cc1ccc(Cl)cc1-c1cc(=O)n(CC(=O)Nc2ccc(-c3cc(=O)[nH][nH]3)cc2)c2c1C(=O)CC2 [Example 14, 2-[4-(5-Chloro-2-cyanophenyl)-2,5-dioxo-2,5,6,7-tetrahydro-1H-cyclopenta[b]pyridin-1-yl]-N-[4-(5-oxo-2,5-dihydro-1H-pyrazol-3-yl)phenyl]acetamide]
12 | 130 | O=C(Cn1c2c(c(-c3cc(Cl)ccc3Cl)cc1=O)C(=O)CC2)Nc1ccc(-c2cc(=O)[nH][nH]2)cc1 [Example 7, 2-[4-(2,5-Dichlorophenyl)-2,5-dioxo-2,5,6,7-tetrahydro-1H-cyclopenta[b]pyridin-1-yl]-N-[4-(5-oxo-2,5-dihydro-1H-pyrazol-3-yl)phenyl]acetamide]

Reference: patent US9475809B2, “Substituted oxopyridine derivatives and use thereof as factor xia/plasma” (BAYER PHARMA AKTIENGESELLSCHAFT, priority 2013, dated 2016)
